Data as given in publication PMC5651866, “Halogenated Chrysins Inhibit Dengue and Zika Virus Infectivity” (Scientific Reports, 2017).

What was measured:
DENV2 = conditions: cell-based assay; cited from earlier work
[1] = Cytotoxicity study (CellTiter 96 AQueous One) in LLC/MK2 cells; assay type: cell-based; conditions: rhesus monkey; for viability at 48 h, 10 µM / viability at 48 h, 25 µM: read-out: Cells viability (%, means ± SEM) LLC/MK2
Experimental: (§1) The cytotoxicity of active compounds was tested on LLC-MK2, Vero, THP-1, HEK-293, HepG2 and C6/36 cell lines. Each cell line was seeded at 1 × 10^4 cells per well in 96-well plates and incubated overnight. The compounds were added at the indicated concentrations and the cells were incubated for 48 h, unless indicated otherwise. Cell viability was analyzed using CellTiter 96® AQueous One Solution Cell Proliferation Assay kit (Promega, Wisconsin-Madison, USA) according to manufacturer’s protocol. The plate was read at the A 450 in a VICTORTM × 3 microplate reader (PerkinElmer, Massachusetts, USA). Percent cell viability in compound-treated wells was calculated using reference DMSO-treated cells as a 100% cell viability control. The CC50 values of LLC/MK2 cells were calculated using nonlinear regression analysis. Results were reported as means and standard error of the means (SEM) of CC50 values of three independent experiments in which each drug concentration was tested in triplicate.

DENV2 NGC = assay: Primary screening: compounds added to DENV2 infected LLC/MK2 cells, plaque titration of culture supernatants; assay type: cell-based, Dengue virus; conditions: for inhibition of virus production: 10 μM and 25 μM, summary of Table 1; for inhibition at 10 µM / inhibition at 25 µM: Dengue virus, DENV2, LLC-MK2, read-out: DENV2 inhibition (%, means ± SEM)
Experimental: In this study, we selected 8 flavonoid derivatives (Fig. 1) and tested their effect on DENV2 NGC in a LLC/MK2 cell-based system. Briefly, the compounds at final concentrations of 10 μM and 25 μM in DMSO were added to DENV2 infected LLC/MK2 cells and the effect on viral particle production was measured by plaque titration of the culture supernatants. […] We also tested cytotoxicity of FV13, FV14, and CH1 to verify the viral inhibition in LLC/MK2 cells (Table 2). The viabilities of FV13 treated cells were 81.00 ± 2.69% and 59.40 ± 2.42%, at 10, and 25 µM respectively, whereas the values for FV14 treated cells were 60.24 ± 3.31% and 60.86 ± 3.57%. We also examined Vero, THP-1, HepG2, and HEK-293 cell viabilities in the presence of selected compounds (Table 2).
LLC/MK2 cells were seeded at 5 × 10^4 cells into each well of 24-well plate and incubated overnight at 37 °C under 5% CO2. Cells were infected with DENV2 at the multiplicity of infection (M.O.I.) of 0.1, unless indicated otherwise, for 1 h with gentle rocking every 15 min. Cells were washed with phosphate buffer saline (PBS) and incubated with 1 ml of MEM medium supplemented with 1% FBS as previously described. The compounds were prepared in dimethylsulfoxide (DMSO) at the indicated concentrations before addition to viral infected cells. Supernatants were collected after 5 day incubation and analyzed by plaque titration. In primary screening, DMSO-treated cells served as the untreated control. Compounds that inhibited virus production by ≥90% were selected for further characterization.

[2] = Cytotoxicity study (CellTiter 96 AQueous One) in Vero cells; assay type: cell-based; conditions: African green monkey, 48 h, read-out: Cells viability (%, means ± SEM) Vero
Experimental: as §1

Vero cells = assay: as above; assay type: cell-based; conditions: 10 and 25 µM; in words
Experimental: as §1

[3] = Cytotoxicity study (CellTiter 96 AQueous One) in HEK-293 cells; assay type: cell-based; conditions: human, read-out: Cells viability (%, means ± SEM) HEK-293
Experimental: as §1

[4] = Cytotoxicity study (CellTiter 96 AQueous One) in THP-1 cells; assay type: cell-based; conditions: human, read-out: Cells viability (%, means ± SEM) THP-1
Experimental: as §1

[5] = Cytotoxicity study (CellTiter 96 AQueous One) in HepG2 cells; assay type: cell-based; conditions: human, read-out: Cells viability (%, means ± SEM) HepG2
Experimental: as §1

[6] = parameters: method as in PMID 27098862, PMID 19397994; conditions: animals and humans; in words; cited from earlier work
ZIKV (SV0010/15) = assay: Antiviral efficacy (EC50) in virus infected LLC/MK2 cells, plaque assay; assay type: cell-based, Zika virus
Experimental: (§2) Compound at various concentrations were added to virus infected LLC/MK2 cells and viral titers were accessed by plaque titration of supernatants as previously described.
(§3) LLC/MK2 cells were seeded at 5 × 10^4 cells into each well of 24-well plate and incubated overnight at 37 °C under 5% CO2. Cells were infected with DENV2 at the multiplicity of infection (M.O.I.) of 0.1, unless indicated otherwise, for 1 h with gentle rocking every 15 min. Cells were washed with phosphate buffer saline (PBS) and incubated with 1 ml of MEM medium supplemented with 1% FBS as previously described. The compounds were prepared in dimethylsulfoxide (DMSO) at the indicated concentrations before addition to viral infected cells. Supernatants were collected after 5 day incubation and analyzed by plaque titration[9].
(§4) Compounds were prepared in DMSO at 8–12 different concentrations and added to virus infected cells as previously described. Supernatants were collected and the EC50 values were calculated from nonlinear regression analysis.

LLC/MK2 cells = assay: Cytotoxicity study (CellTiter 96 AQueous One) in LLC/MK2 cells; assay type: cell-based; conditions: LLC/MK2 cell viability at 120 h versus 48 h; in words
Experimental: as §1

DENV1 (16007) = assay: Antiviral efficacy (EC50) in virus infected LLC/MK2 cells, plaque assay; assay type: cell-based, Dengue virus; conditions: Dengue virus, DENV1, LLC-MK2
Experimental: as §2, §3, §4

[7] = Cytotoxicity study, summary statements over human-derived cell lines; assay type: cell-based; conditions: HepG2 and HEK-293 cells, THP-1, HepG2, HEK-293, 10 and 25 µM, Table 2
Experimental: as §1

DENV4 (c0036) = assay: Antiviral efficacy (EC50) in virus infected LLC/MK2 cells, plaque assay; assay type: cell-based, Dengue virus
Experimental: as §2, §3, §4

DENV2 (NGC) = assay: as above; assay type: cell-based, Dengue virus
Experimental: as §2, §3, §4

DENV3 (16562) = assay: as above; assay type: cell-based, Dengue virus
Experimental: as §2, §3, §4

[8] = test system: BHK-21/DENV2 replicon cells; assay: Replicon inhibition assay, RT-qPCR of replicon RNA; assay type: cell-based; conditions: Dengue virus, DENV2, BHK-21, 72 h, read-out: inhibition of DENV2 replicon replication
Experimental: Next, we studied FV13 inhibition in a DENV2 replicon replication system to investigate whether translation and replication could be implicated as drug targets. BHK-21/DENV2 replicon cells[28] were treated with 5 and 10 µM FV13 and incubated for 72 h before measuring replication efficiency by quantifying replicon RNA. Ribavirin, a known dengue virus replication inhibitor[29], was used as a positive control.
After supernatant collection, the remaining cells in experimental plates were extracted for viral RNAs using TRIzol reagent (Invitrogen, California, USA) according to the manufacturer’s protocol. The samples were loaded into the Direct-zol™ RNA MiniPrep (Zymo research, California, USA) and quantified by Nanodrop spectrophotometry (Eppendorf, New York, USA). The RT-qPCR was performed with a Step-OnePlus Real-Time PCR System (Applied Biosystems, California, USA.) with 1 × Power SYBRGreen PCR Master Mix, 400 nM each of capsid primers[40] or 250 nM of NS1 primers[41] and 0.1 µg of total RNA. The reactions were then cycled at 48 °C 30 min and 95 °C 10 min, followed by 45 cycles of 95 °C for 20 s (denaturation), 55 °C for 30 s (annealing), 72 °C for 30 s (extension). Each sample was analyzed in triplicated and results were confirmed by two independent experiments.
BHK-21 cells expressing a DENV2 replicon (BHK-21/DENV2) were maintained in minimal essential medium (MEM) supplemented with 10% fetal bovine serum (FBS), and 0.3 mg/ml G418 (Bio Basic Canada, Ontario, Canada). The protocol was adapted from Boonyasuppayakorn et al., 2014 [28]. Briefly, cells (5 × 10^4/well) were seeded into 24-well plates and were incubated for 1 day at 37 °C in a humidified CO2 chamber followed by addition of the compounds in 1% DMSO at final concentrations of 5 µM and 10 µM. DMSO (1%) alone was used as the no-inhibitor control (0% inhibition) and the reference compound was ribavirin (TargetMol, Massachusetts, USA) at a final concentration of 5 µM or 10 µM. Cells were incubated at 37 °C for 72 h and lysed to quantify DENV2 replicons by RT-qPCR. Data were reported as percent inhibition compared with ribavirin, as a reference compound and DMSO, 0% inhibition. Results were confirmed by three independent experiments.

## O=C(O)[C@H]1O[C@@H](Oc2cc3oc(-c4ccccc4)cc(=O)c3c(O)c2O)[C@H](O)[C@@H](O)[C@@H]1O [Baicalin]
DENV2
  EC50: 30.2 µM

## COc1ccc(/C=C/C(=O)c2ccccc2O)cc1 [CH1]
[1]
  viability at 48 h, 10 µM: 61.5 ± 6.43%
  viability at 48 h, 25 µM: 59.1 ± 7.42%
DENV2 NGC
  inhibition of virus production: > 99%
  inhibition at 10 µM: 99.78 ± 0.08%
  inhibition at 25 µM: 99.75 ± 0.15%
[2]
  viability at 48 h, 10 µM: > 100%
  viability at 48 h, 25 µM: 80.4 ± 9.81%
Vero cells
  sensitivity of Vero cells to the compound: not
[3]
  viability at 48 h, 10 µM: 98.3 ± 2.95%
  viability at 48 h, 25 µM: 41.3 ± 0.54%
[4]
  viability at 48 h, 10 µM: 93.1 ± 4.99%
  viability at 48 h, 25 µM: 84.8 ± 2.38%
[5]
  viability at 48 h, 10 µM: 71 ± 1.71%
  viability at 48 h, 25 µM: 35.3 ± 1.34%

## O=C(/C=C/c1ccc(O)cc1)c1ccccc1O [CH2]
DENV2 NGC
  inhibition at 10 µM: 52 ± 8.49%
  inhibition at 25 µM: 76 ± 4.24%

## COc1cc(O)c2c(c1)OC(c1ccccc1)CC2=O (stereo not shown) [FN2]
DENV2 NGC
  inhibition at 10 µM: 62 ± 2.45%
  inhibition at 25 µM: 85 ± 3%

## O=c1cc(-c2ccccc2)oc2cc(O)cc(O)c12 [FV2, 5,7-dihydroxyflavone]
DENV2 NGC
  inhibition at 10 µM: 43 ± 3%
  inhibition at 25 µM: 92.8 ± 3.06%
[6]
  oral bioavailability: poor

## COc1cc(O)c2c(=O)c(OC)c(-c3ccccc3)oc2c1 [FV4]
DENV2 NGC
  inhibition at 10 µM: 38 ± 6.48%
  inhibition at 25 µM: 61 ± 3%

## COc1cc(OC)c2c(=O)cc(-c3ccccc3)oc2c1 [FV6]
DENV2 NGC
  inhibition at 10 µM: 55 ± 3%
  inhibition at 25 µM: 76 ± 7.35%

## O=c1cc(-c2ccccc2)oc2c(I)c(O)c(I)c(O)c12 [FV14, 6,8-diiodo-5,7-dihydroxyflavone]
ZIKV (SV0010/15); CC50 in LLC/MK2
  S.I. Selectivity index (CC50/EC50): 32.14
ZIKV (SV0010/15); Zika virus, LLC/MK2, plaque assay in 24-well plates
  EC50: 1.39 ± 0.11 µM
LLC/MK2 cells
  effect of long term incubation on cytotoxicity: significantly greater cytotoxicity at 120 h
[1]; LLC/MK2 cells
  viability at 48 h, 10 µM: 60.2 ± 3.31%
  viability at 48 h, 25 µM: 60.9 ± 3.57%
[1]; LLC/MK2 cells, 48 h incubation, read-out: CC50 (cytotoxic concentration)
  CC50 at 48 h: 42.5 ± 2.53 µM
DENV2 NGC
  inhibition of virus production: > 99%
  inhibition at 10 µM: 99.48 ± 0.43%
  inhibition at 25 µM: 99.63 ± 0.03%
[2]; Vero cells
  viability at 48 h, 10 µM: 45.4 ± 1.17%
  viability at 48 h, 25 µM: 34.1 ± 2.18%
Vero cells
  sensitivity of Vero cells to the compound: very sensitive
DENV1 (16007)
  EC50: 2.3 ± 0.92 µM
[7]
  viability at 48 h: > 80%
DENV4 (c0036); DENV4 (c0036), CC50 in LLC/MK2
  S.I. Selectivity index (CC50/EC50): 34.50
DENV4 (c0036); Dengue virus, DENV4, LLC-MK2
  EC50: 1.29 ± 0.6 µM
[3]; HEK-293 cells
  viability at 48 h, 10 µM: 80.5 ± 3.18%
  viability at 48 h, 25 µM: 48.4 ± 5.76%
[4]; THP-1 cells
  viability at 48 h, 10 µM: 86.1 ± 2.76%
  viability at 48 h, 25 µM: 93.9 ± 7%
DENV2 (NGC); DENV2 (NGC), CC50 in LLC/MK2
  S.I. Selectivity index (CC50/EC50): 20.37
DENV2 (NGC); Dengue virus, DENV2, LLC-MK2
  EC50: 2.19 ± 0.31 µM
DENV3 (16562); DENV3 (16562), CC50 in LLC/MK2
  S.I. Selectivity index (CC50/EC50): 43.64
DENV3 (16562); Dengue virus, DENV3, LLC-MK2
  EC50: 1.02 ± 0.31 µM
[5]; HepG2 cells
  viability at 48 h, 10 µM: 85.6 ± 3.04%
  viability at 48 h, 25 µM: 87.01 ± 0.52%

## O=C1C[C@@H](c2ccc(O)cc2)Oc2cc(O)cc(O)c21 [Naringenin]
DENV2
  EC50: 18 µM

## O=c1cc(-c2ccccc2)oc2cc(O)c(O)c(O)c12 [baicalein]
DENV2
  EC50: 23.9 µM

## O=c1c(O)c(-c2ccc(O)c(O)c2)oc2cc(O)ccc12 [fisetin]
DENV2
  EC50: 192 µM

## O=c1c(O)c(-c2ccc(O)c(O)c2)oc2cc(O)cc(O)c12 [quercetin]
DENV2
  EC50: 118 µM

## NC(=O)c1ncn([C@@H]2O[C@H](CO)[C@@H](O)[C@H]2O)n1 [ribavirin, reference compound]
[8]
  inhibition at 5 µM: 87.4 ± 10.7%
  inhibition at 10 µM: 89.9 ± 4.83%
